# Reference: article PMC6717395 (Drug Design, Development and Therapy, 2019)
# Experiments:
# DPPH antioxidant assay = details: for DPPH % inhibition (mean ± S.E.M): n=3; for DPPH IC50: DPPH radical scavenging
# ABTS antioxidant assay = details: for ABTS percent inhibition (mean ± S.E.M): n=3; for ABTS IC50: ABTS radical scavenging
# [1] = target: butyrylcholinesterase (BChE) (Homo sapiens, UniProt P06276); assay: Anticholinesterase assay; format: biochemical
# [2] = target: acetylcholinesterase (AChE) (Homo sapiens, UniProt P22303); assay: biochemical
# [3] = read-out: Percent BChE (mean ± SEM) inhibition
# Sequence of butyrylcholinesterase (BChE) (P06276 29-602, species assumed): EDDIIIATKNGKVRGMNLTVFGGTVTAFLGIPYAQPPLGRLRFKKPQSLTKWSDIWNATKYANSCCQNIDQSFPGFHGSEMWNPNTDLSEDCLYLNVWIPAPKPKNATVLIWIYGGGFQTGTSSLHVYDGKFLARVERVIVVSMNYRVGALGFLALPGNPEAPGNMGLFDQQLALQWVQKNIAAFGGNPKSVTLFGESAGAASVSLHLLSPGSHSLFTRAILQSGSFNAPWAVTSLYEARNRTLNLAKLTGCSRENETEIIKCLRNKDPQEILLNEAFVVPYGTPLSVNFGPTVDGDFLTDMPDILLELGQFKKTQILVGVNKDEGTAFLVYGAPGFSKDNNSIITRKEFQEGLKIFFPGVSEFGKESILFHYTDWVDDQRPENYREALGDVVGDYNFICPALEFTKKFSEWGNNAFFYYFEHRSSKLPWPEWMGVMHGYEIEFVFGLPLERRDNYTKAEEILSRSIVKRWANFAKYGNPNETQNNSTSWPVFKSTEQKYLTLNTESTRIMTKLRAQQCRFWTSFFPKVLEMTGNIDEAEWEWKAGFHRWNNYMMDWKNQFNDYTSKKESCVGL
# Sequence of acetylcholinesterase (AChE) (P22303 32-614, species assumed): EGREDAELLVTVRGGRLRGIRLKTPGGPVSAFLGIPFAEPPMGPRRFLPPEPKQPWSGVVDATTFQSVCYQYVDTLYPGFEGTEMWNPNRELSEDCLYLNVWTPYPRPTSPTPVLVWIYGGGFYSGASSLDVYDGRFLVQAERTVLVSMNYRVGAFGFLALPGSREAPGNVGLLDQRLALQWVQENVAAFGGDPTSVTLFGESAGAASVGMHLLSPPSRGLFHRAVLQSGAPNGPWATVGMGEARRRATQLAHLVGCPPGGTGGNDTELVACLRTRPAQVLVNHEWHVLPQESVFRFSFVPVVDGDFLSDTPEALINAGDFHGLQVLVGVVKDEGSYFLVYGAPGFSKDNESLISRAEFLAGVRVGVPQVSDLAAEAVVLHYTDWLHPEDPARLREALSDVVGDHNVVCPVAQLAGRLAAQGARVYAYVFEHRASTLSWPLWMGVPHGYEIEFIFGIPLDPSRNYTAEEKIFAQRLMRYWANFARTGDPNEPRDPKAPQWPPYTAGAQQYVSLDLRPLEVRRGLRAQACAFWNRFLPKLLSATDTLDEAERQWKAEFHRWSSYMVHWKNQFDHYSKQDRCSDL
SMILES,DPPH % inhibition (mean ± S.E.M) (DPPH antioxidant assay; 62.5 μg/mL),DPPH % inhibition (mean ± S.E.M) (DPPH antioxidant assay; 125 μg/mL),DPPH % inhibition (mean ± S.E.M) (DPPH antioxidant assay; 250 μg/mL),DPPH % inhibition (mean ± S.E.M) (DPPH antioxidant assay; 500 μg/mL),DPPH % inhibition (mean ± S.E.M) (DPPH antioxidant assay; 1000 μg/mL),DPPH IC50 (DPPH antioxidant assay),ABTS percent inhibition (mean ± S.E.M) (ABTS antioxidant assay; 62.5 μg/mL),ABTS percent inhibition (mean ± S.E.M) (ABTS antioxidant assay; 125 μg/mL),ABTS percent inhibition (mean ± S.E.M) (ABTS antioxidant assay; 250 μg/mL),ABTS percent inhibition (mean ± S.E.M) (ABTS antioxidant assay; 500 μg/mL),ABTS percent inhibition (mean ± S.E.M) (ABTS antioxidant assay; 1000 μg/mL),ABTS IC50 (ABTS antioxidant assay),"inhibition at 62.5 µg/mL [1, 3]",other results
"O=C1O[C@H]([C@@H](O)CO)C(O)=C1O [Ascorbic acid, reference compound]",55.05±1.54%,65.30±2.05%,78.89±1.34%,87.21±0.75%,94.88±1.63%,35 µg/mL,55.51±1.09%,64.06±1.15%,77.64±3.06%,83.76±1.16%,93.41±0.73%,35 µg/mL,–,–
"O=C(O)CCCCC(=O)O [Compound VIII, Hexanedioic acid]",41.17±1.97 %,51.10±2.39 %,63.13±2.17 %,72.84±1.87 %,81.64±2.76 %,118 µg/mL,41.70±1.06 %,50.02±1.11 %,62.19±0.90 %,70.10±1.20 %,80.23±1.37 %,125 µg/mL,40.6 ± 1.06%,"IC50 [1]: 848 µM; inhibition at 125 µg/mL [1, 3]: 50.1 ± 2.16%; inhibition at 250 µg/mL [1, 3]: 61.2 ± 2.1%; inhibition at 500 µg/mL [1, 3]: 71.3 ± 1.1%; inhibition at 1000 µg/mL [1, 3]: 78.2 ± 1.31%; IC50 [2]: 835 µM; inhibition at 62.5 µg/mL ([2]; read-out: Percent AChE (mean ± SEM) inhibition, 62.5 μg/mL, n=3): 41.7 ± 3.01%; inhibition at 125 µg/mL ([2]; read-out: Percent AChE (mean ± SEM) inhibition, 125 μg/mL, n=3): 50.3 ± 2.1%; inhibition at 250 µg/mL ([2]; read-out: Percent AChE (mean ± SEM) inhibition, 250 μg/mL, n=3): 62.1 ± 2.41%; inhibition at 500 µg/mL ([2]; read-out: Percent AChE (mean ± SEM) inhibition, 500 μg/mL, n=3): 71.2 ± 2.37%; inhibition at 1000 µg/mL ([2]; read-out: Percent AChE (mean ± SEM) inhibition, 1000 μg/mL, n=3): 79.6 ± 2.1%"
"COc1ccc2c3c1O[C@H]1C[C@@H](O)C=C[C@@]31CCN(C)C2 [Galanthamine, reference compound]",–,–,–,–,–,–,–,–,–,–,–,–,53.5 ± 1.69%,–
